A compilation of properties of binary mixtures (doi:10.1021/acs.jced.0c00728)

Assay: xn = mol fraction of the nth substance listed
Conditions: 100 kPa

SMILES: CC[n+]1ccn(C)c1.F[B-](F)(F)F + CCC(=O)O
- speed of sound (303.15 K, x1 = 1): 1618 m/s
- speed of sound (313.15 K, x1 = 1): 1595 m/s
- speed of sound (333.15 K, x1 = 1): 1550 m/s

SMILES: CCC(=O)O + CC[n+]1ccn(C)c1.F[B-](F)(F)F
- speed of sound (293.15 K, x2 = 0): 1171 m/s
- speed of sound (293.15 K, x2 = 0.0497): 1173 m/s
- speed of sound (293.15 K, x2 = 0.0888): 1213 m/s
- speed of sound (293.15 K, x2 = 0.2982): 1463 m/s
- speed of sound (293.15 K, x2 = 0.3836): 1496 m/s
- speed of sound (293.15 K, x2 = 0.78): 1593 m/s
- speed of sound (293.15 K, x2 = 0.8899): 1617 m/s
- speed of sound (293.15 K, x2 = 0.9453): 1629 m/s
- speed of sound (303.15 K, x2 = 0): 1134 m/s
- speed of sound (303.15 K, x2 = 0.0497): 1145 m/s
- speed of sound (303.15 K, x2 = 0.0888): 1187 m/s
- speed of sound (303.15 K, x2 = 0.1876): 1332 m/s
- speed of sound (303.15 K, x2 = 0.2982): 1442 m/s
- speed of sound (303.15 K, x2 = 0.4908): 1500 m/s
- speed of sound (303.15 K, x2 = 0.5907): 1521 m/s
- speed of sound (303.15 K, x2 = 0.6891): 1548 m/s
- speed of sound (303.15 K, x2 = 0.78): 1572 m/s
- speed of sound (303.15 K, x2 = 0.8899): 1593 m/s
- speed of sound (303.15 K, x2 = 0.9453): 1607 m/s
- speed of sound (313.15 K, x2 = 0.0497): 1111 m/s
- speed of sound (313.15 K, x2 = 0.0888): 1160 m/s
- speed of sound (313.15 K, x2 = 0.1876): 1313 m/s
- speed of sound (313.15 K, x2 = 0.3836): 1456 m/s
- speed of sound (313.15 K, x2 = 0.5907): 1496 m/s
- speed of sound (313.15 K, x2 = 0.6891): 1524 m/s
- speed of sound (313.15 K, x2 = 0.78): 1549 m/s
- speed of sound (313.15 K, x2 = 0.8899): 1571 m/s
- speed of sound (313.15 K, x2 = 0.9453): 1584 m/s
- speed of sound (323.15 K, x2 = 0): 1060 m/s
- speed of sound (323.15 K, x2 = 0.0497): 1080 m/s
- speed of sound (323.15 K, x2 = 0.0888): 1130 m/s
- speed of sound (323.15 K, x2 = 0.1876): 1291 m/s
- speed of sound (323.15 K, x2 = 0.2982): 1396 m/s
- speed of sound (323.15 K, x2 = 0.4908): 1457 m/s
- speed of sound (323.15 K, x2 = 0.6891): 1501 m/s
- speed of sound (323.15 K, x2 = 0.78): 1525 m/s
- speed of sound (333.15 K, x2 = 0): 1025 m/s
- speed of sound (333.15 K, x2 = 0.0497): 1054 m/s
- speed of sound (333.15 K, x2 = 0.0888): 1105 m/s
- speed of sound (333.15 K, x2 = 0.1876): 1270 m/s
- speed of sound (333.15 K, x2 = 0.2982): 1376 m/s
- speed of sound (333.15 K, x2 = 0.3836): 1415 m/s
- speed of sound (333.15 K, x2 = 0.5907): 1463 m/s
- speed of sound (333.15 K, x2 = 0.6891): 1480 m/s
- speed of sound (333.15 K, x2 = 0.78): 1506 m/s
- speed of sound (333.15 K, x2 = 0.8899): 1525 m/s
